# According to patent US11345716B2, “Nitrogen-containing condensed ring compounds having dopamine D3 antagonistic effect” (Shionogi & Co., Ltd., priority 2016, dated 2022):
# How the values were obtained:
# impulsivity in rat = assay: Effect of suppressing impulsivity in rat (T-maze delayed large reward, i.p.); format: in vivo; details: 3 mg/kg, total 50 trials of 5 days, versus vehicle control group
# Source text: Test Example 3-1: Effect of Suppressing Impulsivity in Rat
# Male Crl: WI rats were obtained at post-natal day 14 and weaning was occurred at post-natal day 21. Starting from then, the rats were housed 2-3 per cage and food-restricted (Day 1). The feeding amount was 5 g/day at post-natal day 21-28 (Day 1-8), 8.5 g/day at post-natal day 29-32 (Day 9-12), and 10 g/day at post-natal day 33-36 (Day 13-16), preventing their body weight from being 60% or less of the weight of the free feeding rats.
# 4 days after the beginning of the food restriction (Day 5), pellets were put on goal boxes located in the left-side and the right-side of T-maze. Then, the rats were allowed to freely explore the T-maze-box for 5 min to get habituated to the T-maze box and learn that the pellets were put on the goal boxes located in the left-side and the right-side. For 4 consecutive days from the next day (Day 6-9), one pellet (20 mg×1) was put in one side of the goal box as a small reward, and 5 pellets (20 mg×5) were put in the other side of the goal box as a large reward, and the rats were trained to learn their positions. Each rat underwent 10-trial per day trainings. […] The evaluations of the drug efficacy were started on Day 12. […]
# [1] = target: human recombinant dopamine D3 receptor (Homo sapiens (Human), UniProt P35462); assay: Test of binding inhibition for the human dopamine D3 receptor (SPA, [3H]-Metylspiperone); details: Jump-In HEK cell membranes, 2 nM [3H]-Metylspiperone, 120 min at 25° C.; read-out: hD3_Ki
# Sequence of human recombinant dopamine D3 receptor (P35462 whole entry): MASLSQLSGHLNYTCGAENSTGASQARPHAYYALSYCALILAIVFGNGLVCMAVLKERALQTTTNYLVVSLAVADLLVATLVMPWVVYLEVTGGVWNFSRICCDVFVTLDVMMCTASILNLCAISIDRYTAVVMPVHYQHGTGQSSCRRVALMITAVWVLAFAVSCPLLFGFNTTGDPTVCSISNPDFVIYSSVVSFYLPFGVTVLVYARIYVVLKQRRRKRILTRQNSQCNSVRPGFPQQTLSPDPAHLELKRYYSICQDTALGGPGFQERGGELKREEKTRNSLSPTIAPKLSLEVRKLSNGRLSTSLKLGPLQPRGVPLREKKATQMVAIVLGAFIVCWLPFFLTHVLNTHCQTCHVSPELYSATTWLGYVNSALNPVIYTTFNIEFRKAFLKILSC
# Description: Cell membranes: Jump-In HEK cell membranes expressing human recombinant dopamine D3 receptor (4 μg/well)
# (§1) Non-specific ligand: (final concentration) 10 μM Butaclamol [(+)-Butaclamol Hydrochloride, D033, Sigma]
# (§2) SPA beads: SPA beads [WGA PVT SPA Scintillation Beads, RPNQ0001 (500 mg), RPNQ0060 (2 g), PerkinElmer] (0.2 mg/well)
# (§3) Incubation time and temperature: 120 min at 25° C.
# (§4) Butaclamol or the compounds of the present invention were weighed and DMSO was added to make a 10 mM solution. This solution was diluted to each concentration.
# [^3H]-Metylspiperone was weighed and the buffer solution was added to make a 6 nM solution.
# SPA beads were weighed and stirred in water to make a 50 mg/mL solution. Using this solution, a mixed solution with the cell membranes was prepared.
# Jump-In HEK Cell membranes (final reaction amount: 4 μg/well), SPA beads (final reaction amount: 0.2 mg/well) and Tris-HCl buffer were mixed and the mixed solution was left still for more than 60 min at 4° C. Then, 50 μL of the mixture was added to each well of the plate. In addition, 25 μL of 6 nM [^3H]-Metylspiperone (final concentration: 2 nM) was added to each well. […] Non-specific binding was calculated based on the radioactivity of [^3II]-Metylspiperone in the presence of 10 μM non-labeled Butaclamol. The total binding was calculated based on the radioactivity of [^3H]-Metylspiperone in the absence of the compounds of the present invention (Vehicle). The Ki values were calculated from dose-response curves.
# Binding activities of the compounds of the present invention were calculated from the following Binding Inhibition Rate (%): Inhibition Rate (%)=[1−(c−a)(b−a)]*100(%) • a: Average cpm of non-specific binding • b: Average cpm of total binding • c: Cpm in the presence of each test compound
# [2] = target: human recombinant dopamine D2 receptor (Homo sapiens (Human), UniProt P14416); assay: Test of binding inhibition for the human dopamine D2 receptor (SPA, [3H]-Metylspiperone); details: Jump-In HEK cell membranes, 1.2 nM [3H]-Metylspiperone, 120 min at 25° C.; read-out: hD2_Ki
# Sequence of human recombinant dopamine D2 receptor (P14416 whole entry): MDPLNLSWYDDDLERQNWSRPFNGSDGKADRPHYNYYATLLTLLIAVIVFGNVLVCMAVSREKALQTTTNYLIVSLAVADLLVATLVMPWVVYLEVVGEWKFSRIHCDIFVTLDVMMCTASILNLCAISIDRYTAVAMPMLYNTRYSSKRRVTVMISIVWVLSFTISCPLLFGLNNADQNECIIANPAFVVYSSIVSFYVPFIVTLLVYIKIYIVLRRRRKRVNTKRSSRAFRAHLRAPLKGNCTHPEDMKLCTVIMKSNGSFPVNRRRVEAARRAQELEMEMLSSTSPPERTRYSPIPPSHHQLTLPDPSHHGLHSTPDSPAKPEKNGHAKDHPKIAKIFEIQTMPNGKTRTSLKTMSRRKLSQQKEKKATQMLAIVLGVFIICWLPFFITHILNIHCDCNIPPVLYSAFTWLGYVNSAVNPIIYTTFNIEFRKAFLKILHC
# Description: Test Example 1: Test of Binding Inhibition for the Human Dopamine D2 Receptor
# Cell membranes: Jump-In HEK cell membranes expressing human recombinant dopamine D2 receptor (2 μg/well)
# Buffer solution: 50 mM Tris-HCl (35409-45, Nacalai Tesque) (pH 7.4) containing 120 mM NaCl (31320-05, Nacalai Tesque), 1 mM MgCl2.6H2O (20909-55, Nacalai Tesque). 5 mM KCl (28514-75, Nacalai Tesque) and 2 mM CaCl2 (067-31, Nacalai Chemical, Ltd)
# Radioligand: (final concentration) 1.2 nM [^3H]-Metylspiperone ([^3H—N-methyl-]-Metylspiperone, NET-856, 83.8 Ci/mmol, PerkinElmer)
# as §1, §2, §3, §4
# [^3H]-Metylspiperone was weighed and the buffer solution was added to make a 3.6 nM solution.
# SPA beads were weighed and stirred in water to moke a 50 mg/mL solution. Using this solution, a mixed solution with the cell membranes was prepared.
# 225 nL of the solutions of the non-specific ligand or the compounds of the present invention at each concentration (in case of vehicle, final concentration 0.3% DMSO) were added in each well of a 384-well white/clear bottom microplate (3706, Corning). Jump-In HEK Cell membranes (final reaction amount: 2 μg protein/well), SPA beads (final reaction amount: 0.2 mg/well) and the buffer were mixed and the mixed solution was left still for more than or equal to 1 h at 4° C. Then, 50 μL of the mixture was added to each well of the plate. In addition, 25 μL of 3.6 nM [^3H]-Metylspiperone (final concentration: 1.2 nM) was added to each well. The plate was sealed by putting TopSeal-A 96/384 well (6050185, PerkinElmer) on the top of the plate, mixed using stirring deaerator (Welltornado, FK-62, Sakaki) and incubated for 120 min at 25° C. After incubation, the radioactivity of [^3H]-Metylspiperone which was binded to D2 receptor was determined by liquid scintillation counter (1450 Microbeta, PerkinElmer) in each well. Non-specific binding was calculated based on the radioactivity of [^3H]-Metylspiperone in the presence of 10 μM non-labeled Butaclamol. The total binding was calculated using the radioactivity of [^3H]-Metylspiperone in the absence of the compounds of the present invention (Vehicle). The Ki values were calculated from dose-response curves.
# Binding activities of the compounds of the present invention were calculated from the following Binding Inhibition Rate (%): Inhibition Rate (%)=[1−(c−a)(b−a)]×100(%) • a: Average cpm of non-specific binding • b: Average cpm of total binding • c: Cpm in the presence of each test compound
Ki [1],Ki [2],SMILES,number of choices for the large reward (impulsivity in rat)
–,–,O=C(N[C@H]1CC[C@H](CCN2CCc3sc(OCC(F)F)nc3C2)CC1)c1cccc2ncccc12 [Compound I-085],significantly increased
0.12 nM,1600 nM,Cc1cc(CC(=O)N[C@H]2CC[C@H](CCN3CCc4sc(N5CC(F)(F)C5)nc4C3)CC2)on1 [Compound I-098],–
0.058 nM,290 nM,COc1cc(CCC(=O)N[C@H]2CC[C@H](CCN3CCc4ccc(OCC(F)F)nc4CC3)CC2)on1 [II-041],–
0.014 nM,> 1700 nM,Cc1cn2c(C(=O)N[C@H]3CC[C@H](CCN4CCc5ccc(OCC(F)F)nc5CC4)CC3)cccc2n1 [II-057],–
1.1 nM,> 1700 nM,Cc1ncc(CC(=O)N[C@H]2CC[C@H](CCN3CCc4cnc(OCC(F)F)nc4CC3)CC2)s1 [II-062],–
0.25 nM,480 nM,Cc1ncc(CC(=O)N[C@H]2CC[C@H](CCN3CCc4cc(C)c(OCC(F)F)nc4CC3)CC2)s1 [III-008],–
